Data taken from PubChem BioAssay (NCI).
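Compound exposure: 48 hours, 5 concentrations, 96-well plates. TGI: total growth inhibition.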

How the values were obtained:
Assay in all cases: inhibition of tumour cell growth, NCI panel, 48 h
MOLT-4 leukemia = system: MOLT-4 leukemia
U251 CNS = system: U251 CNS
SK-OV-3 ovarian = system: SK-OV-3 ovarian
EKVX NSCLC = system: EKVX NSCLC
HT29 colon = system: HT29 colon
NCI-H522 lung = system: NCI-H522 lung
HCC-2998 colon = system: HCC-2998 colon
NCI/ADR-RES ovarian = system: NCI/ADR-RES ovarian
A498 renal = system: A498 renal
MALME-3M melanoma = system: MALME-3M melanoma
NCI-H226 lung = system: NCI-H226 lung
SF-295 CNS = system: SF-295 CNS
SK-MEL-2 melanoma = system: SK-MEL-2 melanoma
SK-MEL-5 melanoma = system: SK-MEL-5 melanoma
NCI-H460 lung = system: NCI-H460 lung
M14 melanoma = system: M14 melanoma
IGROV1 ovarian = system: IGROV1 ovarian
K-562 leukemia = system: K-562 leukemia
MDA-N = system: MDA-N
PC-3 prostate = system: PC-3 prostate
OVCAR-3 ovarian = system: OVCAR-3 ovarian
KM12 colon = system: KM12 colon
HOP-62 NSCLC = system: HOP-62 NSCLC
HCT-15 colon = system: HCT-15 colon
UO-31 renal = system: UO-31 renal
MDA-MB-231 breast = system: MDA-MB-231 breast
HL-60(TB) leukemia = system: HL-60(TB) leukemia
HS 578T breast = system: HS 578T breast
CCRF-CEM leukemia = system: CCRF-CEM leukemia
SNB-75 CNS = system: SNB-75 CNS
T-47D breast = system: T-47D breast
SW-620 colon = system: SW-620 colon
UACC-62 melanoma = system: UACC-62 melanoma
786-0 renal = system: 786-0 renal
SNB-19 CNS = system: SNB-19 CNS
HOP-92 NSCLC = system: HOP-92 NSCLC
BT-549 breast = system: BT-549 breast
UACC-257 melanoma = system: UACC-257 melanoma
HCT-116 colon = system: HCT-116 colon
SF-539 CNS = system: SF-539 CNS
CAKI-1 renal = system: CAKI-1 renal
DU-145 prostate = system: DU-145 prostate
A549 NSCLC = system: A549 NSCLC
COLO 205 colon = system: COLO 205 colon
OVCAR-5 ovarian = system: OVCAR-5 ovarian
SN12C renal = system: SN12C renal
MCF7 breast = system: MCF7 breast
ACHN renal = system: ACHN renal
SF-268 CNS = system: SF-268 CNS
SR leukemia = system: SR leukemia
SK-MEL-28 melanoma = system: SK-MEL-28 melanoma
OVCAR-8 ovarian = system: OVCAR-8 ovarian
RXF 393 renal = system: RXF 393 renal
MDA-MB-435 = system: MDA-MB-435
TK-10 renal = system: TK-10 renal
HOP-18 NSCLC = system: HOP-18 NSCLC
RPMI-8226 leukemia = system: RPMI-8226 leukemia
LOX IMVI melanoma = system: LOX IMVI melanoma
NCI-H23 lung = system: NCI-H23 lung
KM20L2 colon = system: KM20L2 colon
LXFL 529 NSCLC = system: LXFL 529 NSCLC
OVCAR-4 ovarian = system: OVCAR-4 ovarian
DMS 273 small cell lung = system: DMS 273 small cell lung
XF 498 CNS = system: XF 498 CNS
M19-MEL melanoma = system: M19-MEL melanoma
DLD-1 colon = system: DLD-1 colon

Measured: TGI

Nc1c(Br)cc(-c2nc3ccccc3s2)cc1Br
not listed: HOP-18 NSCLC | RPMI-8226 leukemia | LOX IMVI melanoma | NCI-H23 lung | KM20L2 colon | LXFL 529 NSCLC | OVCAR-4 ovarian | DMS 273 small cell lung | XF 498 CNS | M19-MEL melanoma | DLD-1 colon
> 100 µM: all other assays above

O=C1CC[C@@H](NC(=O)Cc2ccccc2)C(=O)N1
not listed: NCI/ADR-RES ovarian | MDA-N | PC-3 prostate | HCT-15 colon | MDA-MB-231 breast | HL-60(TB) leukemia | HS 578T breast | T-47D breast | BT-549 breast | DU-145 prostate | MCF7 breast | RXF 393 renal | MDA-MB-435
> 100 µM: all other assays above
